The supplement of paper PMC4862054

Key:
CAL-85-1 = details: 72 h
How it was run: (§1)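 Plates of 384 wells holding compound in 5 µl medium received breast cancer cell lines in 20 µl suspension and were incubated 72 h. CellTiter-Blue (2.5 µl, 2 h, 37 °C) was used for viability, read at 560/590 nm, and every plate was normalised to vehicle and a positive kill control and assessed by Z'-factor. The EC50 derives from a percent-inhibition dose-response curve fit censored at the highest concentration, leaving out rows whose drug sensitivity score was zero.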

CAL-148 [1] = details: 72 h
How it was run: as §1

MDA-MB-453 [2] = details: 72 h
How it was run: as §1

DU-4475 [3] = details: 72 h
How it was run: as §1

CAL-51 = details: 72 h
How it was run: as §1

BT-549 = assay: normalised response (% of control), CellTiter-Glo; higher = more viable cells (100 = DMSO, 0 = benzethonium chloride kill control); details: incubation time: 72 h
How it was run: (§2)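 Compound was dispensed into 384-well plates at 5 concentrations in 10-fold steps spanning a 10,000-fold range specific to that compound. Breast cancer cell lines were added as 20 µl suspension and left for 72 h before CellTox Green fluorescence (485/520 nm) and then CellTiter-Glo luminescence, read after 10 min at room temperature. Each reported value is the normalised signal at one concentration, with 0.1 % DMSO set at 100 and a positive kill control at 0 on each plate.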

MDA-MB-231 = assay: as above; details: incubation time: 72 h
How it was run: as §2

MCF-10A = assay: as above; details: incubation time: 72 h
How it was run: as §2

MFM-223 = assay: as above; details: incubation time: 72 h
How it was run: as §2

CAL-148 [4] = assay: as above; details: incubation time: 72 h
How it was run: as §2

MDA-MB-453 [5] = assay: as above; details: incubation time: 72 h
How it was run: as §2

BT-474 = assay: as above; details: incubation time: 72 h
How it was run: as §2

SK-BR-3 = assay: as above; details: incubation time: 72 h
How it was run: as §2

DU-4475 [6] = assay: as above; details: incubation time: 72 h
How it was run: as §2

MDA-MB-468 = assay: as above; details: incubation time: 72 h
How it was run: as §2

MDA-MB-436 = assay: as above; details: incubation time: 72 h
How it was run: as §2

HCC1937 = assay: as above; details: incubation time: 72 h
How it was run: as §2

CAL-120 = assay: as above; details: incubation time: 72 h
How it was run: as §2

Row | EC50, CellTiter-Blue viability (MDA-MB-453 [2]) [nM] | SMILES | EC50, CellTiter-Blue viability (CAL-85-1) [nM] | EC50, CellTiter-Blue viability (CAL-148 [1]) [nM] | EC50, CellTiter-Blue viability (DU-4475 [3]) [nM] | EC50, CellTiter-Blue viability (CAL-51) [nM] | normalised response (BT-549) [%] | normalised response (MDA-MB-231) [%] | normalised response (MCF-10A) [%] | normalised response (MFM-223) [%] | normalised response (CAL-148 [4]) [%] | normalised response (MDA-MB-453 [5]) [%] | normalised response (BT-474) [%] | normalised response (SK-BR-3) [%] | normalised response (DU-4475 [6]) [%] | normalised response (MDA-MB-468) [%] | normalised response (MDA-MB-436) [%] | normalised response (HCC1937) [%] | normalised response (CAL-120) [%]
1 | 114 | COc1ccc(S(=O)(=O)Nc2cccnc2Nc2ccc(O)cc2)cc1 [ABT-751] | 290 | 949 | 1250 | 772 |  |  |  |  |  |  |  |  |  |  |  |  | 
2 | 782 | Cc1cc(Nc2nc(N[C@@H](C)c3ncc(F)cn3)ncc2Cl)[nH]n1 [AZD1480] |  |  | 443 |  |  |  |  |  |  |  |  |  |  |  |  |  | 
3 |  | Cc1cc(Nc2nc(N[C@@H](C)c3ncc(F)cn3)ncc2Cl)[nH]n1 [AZD1480] (1000 nM) |  |  |  |  | 82.1 | 78.2 | 89.5 | 50.8 | 87.3 | 72.4 | 82.5 | 90.5 | 81.7 | 84.6 | 91.6 | 96 | 70
4 |  | CNC(=O)c1ccccc1Sc1ccc2c(/C=C/c3ccccn3)n[nH]c2c1 [Axitinib] (10000 nM) |  |  |  |  | 49.7 | 94.5 | 78.6 | 49.3 | 67 | 113 | 80.4 | 77 | 76 | 24.5 | 64.1 | 79.2 | 75.8
5 |  | CC(O)(CS(=O)(=O)c1ccc(F)cc1)C(=O)Nc1ccc(C#N)c(C(F)(F)F)c1 (stereo not given) [Bicalutamide] (10000 nM) |  |  |  |  | 94.2 | 106 | 107 | 101 | 107 | 88.5 | 108 | 103 | 98.4 | 109 | 114 | 93.8 | 105
6 |  | CCNC(=O)CCC/C=C\C[C@@H]1[C@@H](/C=C/[C@@H](O)CCc2ccccc2)[C@H](O)C[C@@H]1O [Bimatoprost] (5500 nM) |  |  |  |  | 102 | 99.5 | 90.3 | 88.2 | 88.3 | 91.2 | 95 | 83.8 | 96.7 | 91.6 | 104 | 91.9 | 95.8
7 |  | COc1cc(Nc2c(C#N)cnc3cc(OCCCN4CCN(C)CC4)c(OC)cc23)c(Cl)cc1Cl [Bosutinib] (10000 nM) |  |  |  |  | 15.6 | 0.86 | 1.72 | 41.2 | 33.3 | 6.11 | 2.86 | 1.81 | 70 | 1.43 | 5.63 | 5.6 | 43.4
8 |  | Cn1cc(C2=C(c3cn(C4CCN(Cc5ccccn5)CC4)c4ccccc34)C(=O)NC2=O)c2ccccc21 [Enzastaurin] (10000 nM) |  |  |  |  | 61.2 | 102 | 87.5 | 103 | 107 | 101 | 96 | 85.6 | 105 | 82.9 | 101 | 101 | 91.1
9 | 7430 | CC(C)(C)NC(=O)[C@H]1CC[C@H]2[C@@H]3CC[C@H]4NC(=O)C=C[C@]4(C)[C@H]3CC[C@]12C [Finasteride] |  | 8190 | 5420 | 8160 |  |  |  |  |  |  |  |  |  |  |  |  | 
10 |  | CC(C)(C)NC(=O)[C@H]1CC[C@H]2[C@@H]3CC[C@H]4NC(=O)C=C[C@]4(C)[C@H]3CC[C@]12C [Finasteride] (10000 nM) |  |  |  |  | 91.7 | 102 | 110 | 93.4 | 105 | 93.4 | 96.5 | 94.4 | 103 | 102 | 108 | 97.8 | 99.7
11 |  | Nc1ccn([C@@H]2O[C@H](CO)[C@@H](O)C2(F)F)c(=O)n1 [Gemcitabine] (1000 nM) |  |  |  |  | 44.7 | 79.5 | 65.8 | 97.7 | 51 | 74.5 | 74.2 | 42.7 | 78.5 | 22.1 | 30.7 | 85.8 | 73
12 |  | CC(C)C[C@H](NC(=O)[C@@H](COC(C)(C)C)NC(=O)[C@H](Cc1ccc(O)cc1)NC(=O)[C@H](CO)NC(=O)[C@H](Cc1c[nH]c2ccccc12)NC(=O)[C@H](Cc1cnc[nH]1)NC(=O)[C@@H]1CCC(=O)N1)C(=O)N[C@@H](CCCNC(=N)N)C(=O)N1CCC[C@H]1C(=O)NNC(N)=O [Goserelin] (10000 nM) |  |  |  |  | 101 | 101 | 100 | 98.9 | 91.2 | 101 | 92.6 | 102 | 97.1 | 93.7 | 97.7 | 96 | 94.8

Row | SMILES | EC50, CellTiter-Blue viability (MDA-MB-453 [2]) [nM] | EC50, CellTiter-Blue viability (CAL-85-1) [nM] | EC50, CellTiter-Blue viability (CAL-148 [1]) [nM] | EC50, CellTiter-Blue viability (DU-4475 [3]) [nM] | EC50, CellTiter-Blue viability (CAL-51) [nM] | normalised response (BT-549) [%] | normalised response (MDA-MB-231) [%] | normalised response (MCF-10A) [%] | normalised response (MFM-223) [%] | normalised response (CAL-148 [4]) [%] | normalised response (MDA-MB-453 [5]) [%] | normalised response (BT-474) [%] | normalised response (SK-BR-3) [%] | normalised response (DU-4475 [6]) [%] | normalised response (MDA-MB-468) [%] | normalised response (MDA-MB-436) [%] | normalised response (HCC1937) [%] | normalised response (CAL-120) [%]
13 | Cn1cc(C2=C(c3cn(C4CCN(Cc5ccccn5)CC4)c4ccccc34)C(=O)NC2=O)c2ccccc21 [Enzastaurin] | 408 |  | 24 |  |  |  |  |  |  |  |  |  |  |  |  |  |  | 
